# According to paper PMC5464773 (eLife, 2017):
# Read-outs that look alike come from different tables or passages of the source.
# Key:
# Mcl-1 = target: T1, Mcl-1 (Homo sapiens, UniProt Q07820); experiment: Competition fluorescence polarization (anisotropy) with fluoresceinated BIM; format: binding
# T1 construct: c-myc
# Experimental: C-myc-tagged receptors were used for all Bcl-2 homologs, as previously described ([DeBartolo et al., 2012]; [Dutta et al., 2010]). Plates were mixed at 23°C for 3 hr. Plates were read again at 24 to check equilibration. Experiments were done in at least triplicate. Data were fit, as described for competition fluorescence anisotropy experiments in [Foight et al. (2014]), to a complete competitive binding model (equation 17 in [Roehrl et al. [2004]]) using a Python script.
# [1] = test system: BCR-ABL-expressing B-lineage acute lymphoblastic leukemia cells dependent on Mcl-1; experiment: BH3 profiling, mitochondrial depolarization (JC-1) in permeabilized cells; format: cell-based; conditions: BH3 profiling fits Mcl-1, sigmoidal dose-response (variable slope); for Top (best-fit value): constrained (Top < 100 or Top > 78); for LogEC50 (best-fit value): x = Log [Peptide] M, fits hit constraint or ambiguous
# Experimental: (§1) Cell line identities were confirmed by STR profiling.
# (§2) Peptides were titrated by serial dilution in MEB buffer (150 mM Mannitol, 10 mM HEPES-KOH pH 7.5, 50 mM KCl, 0.02 mM EGTA, 0.02 mM EDTA, 0.1% BSA and 5 mM Succinate) containing 20 μg/mL oligomycin, 50 μg/mL digitonin, 2 μM JC-1 and 10 mM 2-mercaptoethanol in 384-well plates. Controls for no depolarization (1% DMSO) and complete depolarization with the mitochondrial oxidative phosphorylation uncoupler FCCP (20 μM) were included for data normalization. […] 15 μL of cell suspension was added to each well containing 15 μL of treatment solution. […] To produce percent depolarization, the area under the resultant curve was calculated and normalized to the assay controls. Peptide titration curves were fit to sigmoidal dose-response curves using Graphpad PRISM seven to obtain EC50 values.
# Bfl-1 [2] = target: T2, Bfl-1 (Homo sapiens, UniProt Q16548); experiment: Competition fluorescence polarization (anisotropy) with fluoresceinated BIM; format: binding; conditions: competition FP source data; for Ki: mean of three replicates
# T2 construct: c-myc
# T2 sequence (Q16548 1-175): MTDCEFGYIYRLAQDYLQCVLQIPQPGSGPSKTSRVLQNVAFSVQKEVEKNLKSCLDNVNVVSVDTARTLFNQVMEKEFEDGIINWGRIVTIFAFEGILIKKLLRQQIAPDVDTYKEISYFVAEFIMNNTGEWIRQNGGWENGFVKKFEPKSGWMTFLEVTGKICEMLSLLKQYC
# Experimental: (§3) Plates were mixed at 23°C for 3 hr. Plates were read again at 24 to check equilibration. Experiments were done in at least triplicate.
# Bfl-1 [3] = experiment: as above; format: binding, human; conditions: ratio of Ki values from competition FP
# Experimental: as §3
# SF295 cells = format: cell-based; conditions: for peptide concentration leading to cytochrome c release in unprimed cells: SF295, unprimed, iBH3, 25°C, 1 hr; for Bottom (best-fit value) / HillSlope (best-fit value) / Top (best-fit value) / LogEC50 (best-fit value): SF295 cells, iBH3 fit, sigmoidal dose-response (variable slope); for LogEC50 (best-fit value): log of peptide concentration in M
# Experimental: To test the possibility that FS1, FS2 or FS3 may directly activate BAK and BAX, we measured cytochrome c release in two ‘unprimed’ cell lines (PC-3 and SF295). Unprimed cells require BAK/BAX activators to release cytochrome c ([Certo et al., 2006]).
# as §1
# Plates were incubated at 25°C for 1 hr.
# [4] = test system: BCR-ABL-expressing B-lineage acute lymphoblastic leukemia cells dependent on Bcl-xL; experiment: BH3 profiling, mitochondrial depolarization (JC-1) in permeabilized cells; format: cell-based; conditions: BH3 profiling fits Bcl-xL, sigmoidal dose-response (variable slope), fit ambiguous
# Experimental: as §1, §2
# [5] = competition FP source data, mean of three replicates, values above 5 μM are reported as > 5 μM in the figures, read-out: mean Ki (M) Mcl-1
# [6] = competition FP source data, replicate 1
# [7] = competition FP source data, replicate 2
# [8] = competition FP source data, replicate 3
# T1 sequence (Q07820 whole entry): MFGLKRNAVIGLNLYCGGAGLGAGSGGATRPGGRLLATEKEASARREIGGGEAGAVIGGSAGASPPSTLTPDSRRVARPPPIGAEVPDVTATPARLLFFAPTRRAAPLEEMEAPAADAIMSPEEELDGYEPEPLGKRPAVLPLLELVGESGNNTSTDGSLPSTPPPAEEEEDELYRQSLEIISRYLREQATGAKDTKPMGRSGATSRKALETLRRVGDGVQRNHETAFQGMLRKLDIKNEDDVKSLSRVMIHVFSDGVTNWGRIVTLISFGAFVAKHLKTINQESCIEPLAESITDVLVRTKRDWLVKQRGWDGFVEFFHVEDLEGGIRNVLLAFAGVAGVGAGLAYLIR
substance,measurement,setting,value
Ac-QWVREIAAGLRLAADNVNAQLER-NH2 [FS1],Ki,Mcl-1; [5],7.64e-06 M
same,Ki (M) Mcl-1,Mcl-1; [6],2.37e-06 M
same,Ki (M) Mcl-1,Mcl-1; [7],8.12e-06 M
same,Ki (M) Mcl-1,Mcl-1; [8],1.24e-05 M
same,Ki,"Mcl-1; competition FP, 50 nM c-myc-tagged receptor + 25 nM fluoresceinated BIM, Tris pH 7.8, 23°C, 3 hr, mean ± SD of three replicates, read-out: Ki (nM) Mcl-1",> 5e-06 M
same,HillSlope (best-fit value),[1],0.346
same,Top (best-fit value),[1],99.39
same,LogEC50 (best-fit value),[1],-4.985
same,Ki,Bfl-1 [2],14.9 nM
same,Ki (M) Bfl-1,Bfl-1 [2]; replicate 1,1.51e-08 M
same,Ki (M) Bfl-1,Bfl-1 [2]; replicate 2,1.72e-08 M
same,Ki (M) Bfl-1,Bfl-1 [2]; replicate 3,1.22e-08 M
same,"specificity for Bfl-1 relative to Bcl-xL, Bcl-2, Bcl-w and Mcl-1",Bfl-1 [3],at least 150 fold
same,peptide concentration leading to cytochrome c release in unprimed cells,SF295 cells,> 100 µM
same,Bottom (best-fit value),SF295 cells,~ -0.1825
same,HillSlope (best-fit value),SF295 cells,~ -14.56
same,Top (best-fit value),SF295 cells,0.01448
same,LogEC50 (best-fit value),SF295 cells,~ -4.046
Ac-QWVREIAAGLRRAADDVNAQVER-NH2 [FS2],Ki (M) Mcl-1,Mcl-1; [6],2.88e-06 M
same,Ki (M) Mcl-1,Mcl-1; [7],3.39e-06 M
same,Ki (M) Mcl-1,Mcl-1; [8],3.32e-06 M
same,fold weaker binding to Mcl-1 than to Bfl-1,Mcl-1; ratio of Ki values from competition FP,> 100 fold
same,HillSlope (best-fit value),[1],0.4032
same,Top (best-fit value),[1],~ 100
same,LogEC50 (best-fit value),[1],-4.604
same,Ki,Bfl-1 [2],21.4 nM
same,Ki (M) Bfl-1,Bfl-1 [2]; replicate 1,2.51e-08 M
same,Ki (M) Bfl-1,Bfl-1 [2]; replicate 2,2.52e-08 M
same,Ki (M) Bfl-1,Bfl-1 [2]; replicate 3,1.4e-08 M
same,peptide concentration leading to cytochrome c release in unprimed cells,SF295 cells,> 100 µM
Ac-QWIREIAAGLRRFADILNAQVER-NH2 [FS3],Ki,Mcl-1; [5],5.52e-07 M
same,Ki (M) Mcl-1,Mcl-1; [6],6.51e-07 M
same,Ki (M) Mcl-1,Mcl-1; [7],6.19e-07 M
same,Ki (M) Mcl-1,Mcl-1; [8],3.85e-07 M
same,Bottom (best-fit value),[4]; constraint Bottom < 5,~ 5
same,Top (best-fit value),[4]; constraint Top > 78,97.17
same,HillSlope (best-fit value),[4],~ 8.841
same,LogEC50 (best-fit value),[4]; x = Log [Peptide] M,~ -4.964
same,HillSlope (best-fit value),[1],0.8379
same,Bottom (best-fit value),[1]; constrained (0 < Bottom < 5 or Bottom < 5),4.876
same,Top (best-fit value),[1],~ 100
same,LogEC50 (best-fit value),[1],-5.183
same,peptide concentration leading to cytochrome c release in unprimed cells,SF295 cells,30 to 100 µM
same,Bottom (best-fit value),SF295 cells,0.0773
same,HillSlope (best-fit value),SF295 cells,2.539
same,Top (best-fit value),SF295 cells,1.042
same,LogEC50 (best-fit value),SF295 cells,-4.873
